In US8293979B2, “Weed controller metabolism proteins, genes, thereof and use of the same” (Sumitomo Chemical Company, Limited, priority 2001, dated 2012):

Experiments:
[1] = system: Streptomyces roseochromogenes ATCC13400; assay: Metabolism of compound (II) by a microorganism; assay type: in vitro ADME; conditions: compound (II) at 100 ppm, 7 to 8 days at 30° C.
Protocol: (§1) The HPLC for content analysis in Examples 1, 41 and 42 and fraction purification of the compound was conducted under the conditions shown below.
(§2) The various microorganisms shown in Tables 1 and 2 were grown in ISP2 agar medium (1.0% (w/v) malt extract, 0.4% (w/v) yeast extract, 0.4% (w/v) glucose, 2.0% (w/v) agar, pH 7.3). A “loopful” of the each microorganism was added to TGY medium (0.5% (w/v) tryptone, 0.5% (w/v) yeast extract, 0.1% (w/v) glucose, 0.01% (w/v) KH2PO4, pH 7.0) and incubated with shaking at 30° C. for 2 to 4 days. One-tenth milliliter (0.1 ml) of the obtained culture was incubated with shaking in 3 ml of sporulation medium (0.1% (w/v) of meat extract, 0.2% (w/v) tryptose, 1% glucose, pH 7.1) containing compound (II) at 100 ppm for 7 to 8 days at 30° C. Fifty microliters (50 μl) of 2N HCl was added to the resulting culture and this was extracted with 3 ml of ethyl acetate. The obtained ethyl acetate layer was analyzed on the HPLC. The concentration of compound (II) was reduced (column retention time of 23.9 minutes) and new peaks were detected for compounds at retention times of 21.6 minutes and 22.2 minutes (each referred to as metabolite (I) and metabolite (II)).

[2] = system: Streptomyces sp. SANK62585; assay: Metabolism of compound (II) by a microorganism; assay type: in vitro ADME; conditions: compound (II) at 100 ppm, 7 to 8 days at 30° C.
Protocol: as §1, §2

[3] = system: Streptomyces rimosus ATCC10970; assay: Metabolism of compound (II) by a microorganism; assay type: in vitro ADME; conditions: compound (II) at 100 ppm, 7 to 8 days at 30° C.
Protocol: as §1, §2

[4] = system: Streptomyces nogalater IFO13445; assay: Metabolism of compound (II) by a microorganism; assay type: in vitro ADME; conditions: compound (II) at 100 ppm, 7 to 8 days at 30° C.
Protocol: as §1, §2

[5] = system: Streptomyces catenulae IFO12848; assay: Metabolism of compound (II) by a microorganism; assay type: in vitro ADME; conditions: compound (II) at 100 ppm, 7 to 8 days at 30° C.
Protocol: as §1, §2

[6] = system: leaf pieces of the tobacco to which the present invention DNA (A1)S has been introduced; assay: Evaluation of the resistance utilizing a leaf piece of the present invention DNA (A1)S transgenic tobacco; assay type: cell-based; conditions: 1 point continuously grew, 0.5 halfly withered, 0 turned white and withered
Protocol: Next, other than culturing overnight the transgenic agrobacterium bearing the above plasmid at 30° C. in LB liquid medium containing 25 mg/L kanamycin, said agrobacterium were utilized to introduce genes into tobacco according to the method described in Example 19. There were obtained, respectively, transgenic tobaccos which have incorporated the T-DNA region of pBI-NdG6-rSt-657soy or pBI-NdG6-rSt12-657soy.
Leaves were taken from 35 transgenic tobaccos obtained in Example 47(9). Each leaf was divided into pieces in which each piece was 5 to 7 mm wide. Leaf pieces were planted onto MS agar medium containing 0, 0.05, 0.1 or 0.2 mg/L of compound (II) and cultured in the light at room temperature. On the 11th day of culturing, the herbicidal damage of each of the leaf pieces was observed. Further, leaf pieces were planted onto MS agar mediums containing 0, 0.01, 0.02, 0.05 or 0.1 mg/L of compound (XII) and cultured in the light at room temperature. On the 7th day of culturing, the herbicidal damage of each of the leaf pieces was observed. […] An average score for each group was determined by scoring 1 point to a leaf piece that continuously grew, 0.5 points to a halfly withered leaf piece in which chemical damage was observed, and 0 points to a leaf piece which turned white and had withered. […]

[7] = system: present invention protein (A18); assay: Metabolism of compounds by the present invention protein (A18), reaction solution, HPLC; assay type: in vitro ADME, Streptomyces achromogenes IFO 12735; conditions: 12.5 ppm of compound, components A, B, C, 20 μl supernatant fraction of Example 53(2), 30° C. for 10 minutes
[8] = system: present invention protein (A23); assay: Metabolism of compounds by the present invention protein (A23), reaction solution, HPLC; assay type: in vitro ADME, Streptomyces roseorubens IFO 13682T; conditions: 12.5 ppm of compound, components A, B, C, 20 μl supernatant fraction of Example 63(2), 30° C. for 10 minutes
[9] = system: present invention protein (A2); assay: Metabolism of compounds by the present invention protein (A2), reaction solution, HPLC; assay type: in vitro ADME, Saccharopolyspora taberi JCM 9383t; conditions: 5 ppm of compound, components A, B, C, 20 μl supernatant fraction of Example 7(2), 30° C. for 10 minutes
[10] = system: present invention protein (A17); assay: Metabolism of compounds by the present invention protein (A17), reaction solution, HPLC; assay type: in vitro ADME, Streptomyces griseus ATCC 10137; conditions: 12.5 ppm of compound, components A, B, C, 20 μl supernatant fraction of Example 51(2), 30° C. for 10 minutes
present protein (A10) = target: T1, present protein (A10) (Streptomyces griseolus, UniProt P18326); assay type: in vitro ADME, Streptomyces griseolus ATCC 11796; conditions: 5 ppm of compound, components A, B, C, 20 μl supernatant fraction of Example 10(2), 30° C. for 10 minutes, HPLC
T1 construct: made in house; host or cells: E. coli JM109 carrying pKSN11796 or pKSN11796F; 150,000 x g supernatant (crude extract)
T1 sequence (P18326 whole entry H308Q): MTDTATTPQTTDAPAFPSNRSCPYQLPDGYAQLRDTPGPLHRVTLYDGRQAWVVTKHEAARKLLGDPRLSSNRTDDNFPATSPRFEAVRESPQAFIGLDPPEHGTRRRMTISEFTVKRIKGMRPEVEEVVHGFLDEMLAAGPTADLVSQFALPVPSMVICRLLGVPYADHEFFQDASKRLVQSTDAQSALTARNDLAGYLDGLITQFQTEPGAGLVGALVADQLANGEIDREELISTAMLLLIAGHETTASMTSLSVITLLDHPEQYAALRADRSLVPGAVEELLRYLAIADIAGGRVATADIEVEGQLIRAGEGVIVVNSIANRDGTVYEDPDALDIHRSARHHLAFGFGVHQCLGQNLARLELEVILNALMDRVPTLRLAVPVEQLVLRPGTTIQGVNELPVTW

[11] = system: present invention protein (A14); assay: Metabolism of compounds by the present invention protein (A14), reaction solution, HPLC; assay type: in vitro ADME, Streptomyces glomerochromogenes IFO 13673t; conditions: 5 ppm of compound, components A, B, C, 20 μl supernatant fraction of Example 38(2), 30° C. for 10 minutes
[12] = system: present invention protein (A19); assay: Metabolism of compounds by the present invention protein (A19), reaction solution, HPLC; assay type: in vitro ADME, Streptomyces griseus IFO 13849T; conditions: 12.5 ppm of compound, components A, B, C, 20 μl supernatant fraction of Example 55(2), 30° C. for 10 minutes
[13] = system: present invention protein (A15); assay: Metabolism of compounds by the present invention protein (A15), reaction solution, HPLC; assay type: in vitro ADME, Streptomyces olivochromogenes IFO 12444; conditions: 5 ppm of compound, components A, B, C, 20 μl supernatant fraction of Example 40(2), 30° C. for 10 minutes
[14] = system: present invention protein (A25); assay: Metabolism of compounds by the present invention protein (A25), reaction solution, HPLC; assay type: in vitro ADME, Streptomyces steffisburgensis IFO 13446T; conditions: 12.5 ppm of compound, components A, B, C, 20 μl supernatant fraction of Example 67(2), 30° C. for 10 minutes

Row | SMILES | concentration of compound (II) [1] | concentration of compound (II) [2] | concentration of compound (II) [3] | concentration of compound (II) [4] | concentration of compound (II) [5] | average score of leaf pieces compared with the wild type tobacco ([6]; MS agar medium containing 0, 0.05, 0.1 or 0.2 mg/L of compound (II), 11th day) | concentration of the compound detected from metabolism solution (A18) compared to control solution (A18) [7] | concentration of the compound detected from metabolism solution (A23) compared to control solution (A23) [8] | concentration of the compound detected from metabolism solution (A2) compared to control solution (A2) [9] | concentration of the compound detected from metabolism solution (A17) compared to control solution (A17) [10] | concentration of the compound detected from metabolism solution (A10) compared to control solution (A10) (present protein (A10)) | concentration of the compound detected from metabolism solution (A14) compared to control solution (A14) [11] | average score of leaf pieces compared with the wild type tobacco ([6]; MS agar mediums containing 0, 0.01, 0.02, 0.05 or 0.1 mg/L of compound (XII), 7th day) | concentration of the compound detected from metabolism solution (A19) compared to control solution (A19) [12] | concentration of the compound detected from metabolism solution (A15) compared to control solution (A15) [13] | concentration of the compound detected from metabolism solution (A25) compared to control solution (A25) [14]
1 | C[C@@H](Oc1cc(-n2c(=O)cc(C(F)(F)F)n(C)c2=O)c(F)cc1Cl)C(=O)O [compound (II)] | 81.9 ppm | 54.6 ppm | 70.9 ppm | 12.8 ppm | 85.3 ppm | higher |  |  |  |  |  |  |  |  |  | 
2 | Cn1c(C(F)(F)F)cc(=O)n(-c2cc(Oc3cccnc3OCC(=O)O)c(Cl)cc2F)c1=O [compound (XII)] |  |  |  |  |  |  | lower | lower | lower | lower | lower | lower | higher | lower | lower | lower
3 | Cn1c(C(F)(F)F)cc(=O)n(-c2cc(Oc3ccccc3OCC(=O)O)c(Cl)cc2F)c1=O [compound (XIII)] |  |  |  |  |  |  | lower | lower | lower | lower | lower | lower |  | lower | lower | lower
